ChEMBL document CHEMBL1201862, “PubChem BioAssay data set” (2004)
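All cell lines were grown in 96-well plates and treated with compound for 48 hours. The concentration for 50% growth inhibition is given as GI50.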 The source made the active and inactive calls. Cut-off read from the data, not from the text of the source: active = GI50 up to about 1.1 µM and inactive = higher. Where a SMILES comes first, the peptide text is derived from it. The star is where a group is joined. Boc = CC(C)(C)OC(=O)*; OBn = c1ccc(CO*)cc1

What was measured:
Assay in all cases: NCI anticancer screen, dose series, 48 h
[1] = test system: K562
[2] = test system: HCT-116
[3] = test system: NCI-H460
[4] = test system: MCF7
[5] = test system: SF-268
[6] = test system: UACC-62
[7] = test system: HCC 2998
[8] = test system: SF-539
[9] = test system: NCI/ADR-RES
[10] = test system: HCT-15
[11] = test system: OVCAR-5
[12] = test system: DU-145
[13] = test system: RXF 393
[14] = test system: OVCAR-8
[15] = test system: SR
[16] = test system: SN12C
[17] = test system: MOLT-4
[18] = test system: Hs-578T
[19] = test system: MDA-MB-231
[20] = test system: NCI-H522

SMILES | GI50 [1] | GI50 [2] | GI50 [3] | GI50 [4] | GI50 [5] | GI50 [6] | GI50 [7] | GI50 [8] | GI50 [9] | GI50 [10] [µM] | GI50 [11] | GI50 [12] | GI50 [13] | GI50 [14] | GI50 [15] | GI50 [16] | GI50 [17] | GI50 [18] | GI50 [19] | GI50 [20]
O=C1Nc2ccccc2/C1=c1\[nH]c(=O)/c(=C\c2ccc(OCc3ccccc3)cn2)[nH]c1=O | 20.4 µM (inactive) | 85.7 µM (inactive) | > 100 µM (inactive) | > 100 µM (inactive) | 21.2 µM (inactive) | 67 µM (inactive) | > 100 µM (inactive) | 18.2 µM (inactive) | 91.6 µM (inactive) | 41.1 | > 100 µM (inactive) | 86.5 µM (inactive) | 8.17 µM (inactive) | 78.7 µM (inactive) | 20.1 µM (inactive) | > 100 µM (inactive) | 52.8 µM (inactive) | 21.4 µM (inactive) | 35.1 µM (inactive) | 94.4 µM (inactive)
O=C1C[C@H]2[C@H](c3ccc(Br)cc3)[C@H]3C(=O)c4ccccc4NC(=O)[C@@H]3[C@@]2(O)c2ccccc2N1 | 12 µM (inactive) | 12.3 µM (inactive) | 25.5 µM (inactive) | 11.1 µM (inactive) | 19.1 µM (inactive) | 24.8 µM (inactive) | 11.7 µM (inactive) | 19.5 µM (inactive) | 14.9 µM (inactive) | 27.9 | 27.2 µM (inactive) | 24 µM (inactive) | 3.48 µM (inactive) | 19 µM (inactive) | 7.41 µM (inactive) | 24.5 µM (inactive) | 3.94 µM (inactive) | 48 µM (inactive) | 14.4 µM (inactive) | 12.1 µM (inactive)
CC(=O)O[C@@]12[C@@H]3O[C@@]4(O)C[C@]5(C)[C@H]6C[C@@](C(C)C)(O[C@H]5c5ccoc5)O[C@H]1[C@]6(C4)O[C@]2(O)C(C)=CC3(C)C | > 100 µM (inactive) | > 100 µM (inactive) | – | > 100 µM (inactive) | > 100 µM (inactive) | > 100 µM (inactive) | > 100 µM (inactive) | > 100 µM (inactive) | > 100 µM (inactive) | > 100 | > 100 µM (inactive) | > 100 µM (inactive) | > 100 µM (inactive) | > 100 µM (inactive) | > 100 µM (inactive) | > 100 µM (inactive) | > 100 µM (inactive) | > 100 µM (inactive) | > 100 µM (inactive) | 78.5 µM (inactive)
Cc1cc(C(=O)CBr)c(CN2C(=O)c3ccccc3C2=O)c(=O)n1C | 3.19 µM (inactive) | 66.1 µM (inactive) | 26.3 µM (inactive) | 17.9 µM (inactive) | 24.4 µM (inactive) | 16.6 µM (inactive) | 38.1 µM (inactive) | 16.2 µM (inactive) | 47.8 µM (inactive) | 12.6 | 24.9 µM (inactive) | 13.7 µM (inactive) | 11 µM (inactive) | 18.1 µM (inactive) | 1.64 µM (inactive) | 17.6 µM (inactive) | 1.93 µM (inactive) | 15.2 µM (inactive) | 18.1 µM (inactive) | 16.1 µM (inactive)
Cc1cc[n+]2c(c1)-c1cc(C)cc[n+]1CC2 | > 100 µM (inactive) | > 100 µM (inactive) | > 100 µM (inactive) | > 100 µM (inactive) | > 100 µM (inactive) | > 100 µM (inactive) | > 100 µM (inactive) | > 100 µM (inactive) | > 100 µM (inactive) | > 100 | > 100 µM (inactive) | > 100 µM (inactive) | > 100 µM (inactive) | > 66.5 µM (inactive) | > 100 µM (inactive) | 89.9 µM (inactive) | > 100 µM (inactive) | > 100 µM (inactive) | > 71.1 µM (inactive) | 29.4 µM (inactive)
O=C(NCCCCCN1CCC2(CCCCC2)CC1)C(C1CCCCC1)C1CCCCC1 | 1.52 µM (inactive) | 4.44 µM (inactive) | 2.45 µM (inactive) | 2.13 µM (inactive) | 5.35 µM (inactive) | 2.48 µM (inactive) | 1.3 µM (inactive) | 1.91 µM (inactive) | 3.18 µM (inactive) | 3.08 | 6.22 µM (inactive) | 4.6 µM (inactive) | 4.24 µM (inactive) | 2.72 µM (inactive) | 1.57 µM (inactive) | 3.55 µM (inactive) | 1.9 µM (inactive) | 3.05 µM (inactive) | 5.11 µM (inactive) | 4.17 µM (inactive)
O=C1C2C3C=CC(C2C(=O)N1CN1CCOCC1)C1C2C(=O)N(CN4CCOCC4)C(=O)C2C31 (stereo not drawn) | 25.8 µM (inactive) | > 44.9 µM (inactive) | > 37.5 µM (inactive) | > 100 µM (inactive) | > 44.5 µM (inactive) | > 47 µM (inactive) | > 46.5 µM (inactive) | > 56.8 µM (inactive) | > 100 µM (inactive) | > 42.4 | > 59.2 µM (inactive) | > 100 µM (inactive) | > 49 µM (inactive) | > 48.3 µM (inactive) | 30.8 µM (inactive) | > 44.7 µM (inactive) | 18.2 µM (inactive) | > 100 µM (inactive) | > 100 µM (inactive) | > 40 µM (inactive)
COc1ccc(C2OC(=O)c3ccc4ccccc4c32)c(C)c1 (stereo not drawn) | 3.55 µM (inactive) | 4.93 µM (inactive) | 4.18 µM (inactive) | 5.65 µM (inactive) | 45.2 µM (inactive) | 6.93 µM (inactive) | 3.85 µM (inactive) | 12.2 µM (inactive) | 2.37 µM (inactive) | 4.1 | 19.9 µM (inactive) | 22.2 µM (inactive) | 5.33 µM (inactive) | 14.2 µM (inactive) | 3.86 µM (inactive) | 10.1 µM (inactive) | 7.73 µM (inactive) | 10.2 µM (inactive) | 6.12 µM (inactive) | 4.42 µM (inactive)
CC12CCC(=O)C=C1CCC1C2C(O)CC2(C)C(c3csc(N)n3)CCC12.O=S(=O)(O)c1ccc(Br)cc1 (stereo not drawn) | > 100 µM (inactive) | > 100 µM (inactive) | – | > 100 µM (inactive) | > 100 µM (inactive) | > 100 µM (inactive) | > 100 µM (inactive) | > 100 µM (inactive) | > 100 µM (inactive) | > 100 | > 100 µM (inactive) | > 100 µM (inactive) | > 100 µM (inactive) | > 100 µM (inactive) | > 100 µM (inactive) | > 100 µM (inactive) | > 100 µM (inactive) | > 100 µM (inactive) | > 100 µM (inactive) | > 100 µM (inactive)
CC(NC(=O)C(Cc1ccccc1)NC(=O)C(Cc1ccccc1)NC(=O)OC(C)(C)C)C(=O)OCc1ccccc1 (stereo not drawn) (Boc-Phe-Phe-Ala-OBn; configuration not given here) | 64.3 µM (inactive) | 76.9 µM (inactive) | > 100 µM (inactive) | 53.5 µM (inactive) | > 100 µM (inactive) | 49.4 µM (inactive) | 54.2 µM (inactive) | 37.9 µM (inactive) | > 100 µM (inactive) | – | > 100 µM (inactive) | > 100 µM (inactive) | 30.7 µM (inactive) | > 100 µM (inactive) | 28.6 µM (inactive) | > 100 µM (inactive) | 54.7 µM (inactive) | 73.3 µM (inactive) | > 100 µM (inactive) | 68.1 µM (inactive)
Cn1c2c(c3ccccc31)CC1c3c(c4ccccc4n3C)CC21 (stereo not drawn) | > 100 µM (inactive) | – | > 100 µM (inactive) | > 100 µM (inactive) | > 100 µM (inactive) | > 100 µM (inactive) | > 100 µM (inactive) | > 100 µM (inactive) | > 100 µM (inactive) | > 100 | > 100 µM (inactive) | > 100 µM (inactive) | > 100 µM (inactive) | > 100 µM (inactive) | > 100 µM (inactive) | > 100 µM (inactive) | > 100 µM (inactive) | > 100 µM (inactive) | > 100 µM (inactive) | > 100 µM (inactive)
CC1(C)C(=O)/C(=C/c2ccccc2)C(C)(C)C1(C)C | 35.2 µM (inactive) | 38.5 µM (inactive) | 62.7 µM (inactive) | 35.2 µM (inactive) | – | 54.1 µM (inactive) | > 91.4 µM (inactive) | > 100 µM (inactive) | > 90.6 µM (inactive) | 54.1 | > 100 µM (inactive) | 40.7 µM (inactive) | > 100 µM (inactive) | > 100 µM (inactive) | 37 µM (inactive) | 50.8 µM (inactive) | 56.2 µM (inactive) | 40.6 µM (inactive) | > 93.8 µM (inactive) | 63.2 µM (inactive)
O=c1oc2ccc([N+](=O)[O-])cc2cc1Br | > 100 µM (inactive) | > 100 µM (inactive) | > 100 µM (inactive) | > 100 µM (inactive) | 27.4 µM (inactive) | 31.6 µM (inactive) | > 100 µM (inactive) | > 100 µM (inactive) | > 100 µM (inactive) | – | > 100 µM (inactive) | > 100 µM (inactive) | 21.7 µM (inactive) | > 100 µM (inactive) | 47.3 µM (inactive) | > 100 µM (inactive) | > 100 µM (inactive) | > 100 µM (inactive) | > 100 µM (inactive) | > 100 µM (inactive)
O=C(C(Cl)=C(N1CCOCC1)N1CCOCC1)C(Cl)Cl | > 100 µM (inactive) | > 100 µM (inactive) | > 100 µM (inactive) | 94.2 µM (inactive) | > 100 µM (inactive) | > 100 µM (inactive) | > 100 µM (inactive) | > 100 µM (inactive) | > 100 µM (inactive) | > 100 | – | > 100 µM (inactive) | > 100 µM (inactive) | > 100 µM (inactive) | 34.5 µM (inactive) | > 100 µM (inactive) | > 100 µM (inactive) | > 100 µM (inactive) | > 100 µM (inactive) | > 100 µM (inactive)
